Test results: patent publication US20160002248A1, “GLS1 INHIBITORS FOR TREATING DISEASE” (Board of Regents, The University of Texas System, priority 2014, published 2016)

Experiments:
[1] = target: T1, purified recombinant human GAC (GLS1) (Homo sapiens, UniProt O94925); assay: GLS1 Enzymatic Activity Assay (dual-coupled enzymatic assay); assay type: biochemical
T1 sequence (O94925 55-598 isoform O94925-3 limits assumed): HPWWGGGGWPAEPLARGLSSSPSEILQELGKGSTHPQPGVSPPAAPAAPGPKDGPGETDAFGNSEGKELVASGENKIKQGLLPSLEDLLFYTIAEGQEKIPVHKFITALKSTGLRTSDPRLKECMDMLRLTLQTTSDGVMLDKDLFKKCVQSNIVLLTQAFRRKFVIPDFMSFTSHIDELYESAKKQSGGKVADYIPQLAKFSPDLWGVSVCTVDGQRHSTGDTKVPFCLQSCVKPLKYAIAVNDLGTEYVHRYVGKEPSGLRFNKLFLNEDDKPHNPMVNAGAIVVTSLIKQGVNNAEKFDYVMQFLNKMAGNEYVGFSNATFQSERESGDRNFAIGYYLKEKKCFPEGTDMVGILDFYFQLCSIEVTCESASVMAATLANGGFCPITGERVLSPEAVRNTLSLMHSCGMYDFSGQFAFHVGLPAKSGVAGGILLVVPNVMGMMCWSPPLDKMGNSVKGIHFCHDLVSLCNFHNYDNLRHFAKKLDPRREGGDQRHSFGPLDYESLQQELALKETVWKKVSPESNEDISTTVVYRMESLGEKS
In short: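 Recombinant human GAC (2 nM) preincubated with 50 mM potassium phosphate, then inhibitor (10 min each, RT); 1 mM glutamine, pH 7.4 Hepes buffer, 1% DMSO. Glutamate coupled via glutamate oxidase/HRP to resorufin (Ex 530/Em 590), kinetic or 20-min endpoint; IC50 by four-parameter logistic fit.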

A549 cells = assay: Proliferation Assay (A549 cell viability, Cell Titer Fluor); assay type: cell-based; conditions: Homo sapiens, 72 hours
In short: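 Compound was added to A549 cells (1000/well, pre-grown 24 h in RPMI 1640 plus 10% dialyzed FBS) at 0.5% DMSO and left 72 h under 37 °C, 5% CO2, ambient O2. Live-cell fluorescence (Cell Titer Fluor) gave the EC50.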

| Compound | IC50 [1] | EC50 (A549 cells) |
| --- | --- | --- |
| Cc1ccc(CNC(=O)c2cn(CCCCc3cc4cc(-c5cc(F)cc(F)c5)[nH]c4nn3)nn2)cn1 [Example 232, 1-{4-[6-(3,5-difluorophenyl)-7H-pyrrolo[2,3-c]pyridazin-3-yl]butyl}-N-[(6-methylpyridin-3-yl)methyl]-1H-1,2,3-triazole-4-carboxamide] | < 100 nM | 100 to 500 nM |
| Cc1ccc(CNC(=O)c2cn(CCCCc3cc4cc(C5CCOCC5)[nH]c4nn3)nn2)cn1 [Example 99, N-[(6-methylpyridin-3-yl)methyl]-1-{4-[6-(oxan-4-yl)-7H-pyrrolo[2,3-c]pyridazin-3-yl]butyl}-1H-1,2,3-triazole-4-carboxamide] | 100 to 500 nM | 500 to 5000 nM |
| O=C(NCc1cccc(C(F)(F)F)n1)c1cn(CCCCc2cc3c(-c4ccoc4)c(C4CC4)[nH]c3nn2)nn1 [Example 186, 1-{4-[6-cyclopropyl-5-(furan-3-yl)-7H-pyrrolo[2,3-c]pyridazin-3-yl]butyl}-N-{[6-(trifluoromethyl)pyridin-2-yl]methyl}-1H-1,2,3-triazole-4-carboxamide] | < 100 nM | < 100 nM |
| Cc1ccc(CNC(=O)c2cn(CCCCc3cc4cc(-c5ccccc5)[nH]c4nn3)nn2)cn1 [Example 209, N-[(6-methylpyridin-3-yl)methyl]-1-(4-{6-phenyl-7H-pyrrolo[2,3-c]pyridazin-3-yl}butyl)-1H-1,2,3-triazole-4-carboxamide] | < 100 nM | 100 to 500 nM |
| CS(=O)(=O)c1cccc(-c2c(C3CC3)[nH]c3nnc(CCCCn4cc(C(=O)NCc5ccccn5)nn4)cc23)c1 [Example 136, 1-{4-[6-cyclopropyl-5-(3-methanesulfonylphenyl)-7H-pyrrolo[2,3-c]pyridazin-3-yl]butyl}-N-(pyridin-2-ylmethyl)-1H-1,2,3-triazole-4-carboxamide] | < 100 nM | 500 to 5000 nM |
| CC(C)(O)c1ccc(CNC(=O)c2cn(CCCCc3cc4c(-c5cccc(OC(F)(F)F)c5)c(C5CC5)[nH]c4nn3)nn2)cn1 [Example 169, 1-(4-{6-cyclopropyl-5-[3-(trifluoromethoxy)phenyl]-7H-pyrrolo[2,3-c]pyridazin-3-yl}butyl)-N-{[6-(2-hydroxypropan-2-yl)pyridin-3-yl]methyl}-1H-1,2,3-triazole-4-carboxamide] | < 100 nM | 100 to 500 nM |
| O=C(NCc1ccccn1)c1cn(CCCCc2cc3cc(Cc4ccccc4)[nH]c3nn2)nn1 [Example 34, 1-(4-{6-benzyl-7H-pyrrolo[2,3-c]pyridazin-3-yl}butyl)-N-(pyridin-2-ylmethyl)-1H-1,2,3-triazole-4-carboxamide] | < 100 nM | 500 to 5000 nM |
| Cn1nccc1-c1c(C2CC2)[nH]c2nnc(CCCCn3cc(C(=O)NCc4ccccn4)nn3)cc12 [Example 135, 1-{4-[6-cyclopropyl-5-(1-methyl-1H-pyrazol-5-yl)-7H-pyrrolo[2,3-c]pyridazin-3-yl]butyl}-N-(pyridin-2-ylmethyl)-1H-1,2,3-triazole-4-carboxamide] | < 100 nM | 500 to 5000 nM |
| O=C(NCc1ccccc1)c1nnc(CCCCc2cc3cc(Cc4ccccc4)[nH]c3nn2)s1 [Example 73, N-benzyl-5-(4-{6-benzyl-7H-pyrrolo[2,3-c]pyridazin-3-yl}butyl)-1,3,4-thiadiazole-2-carboxamide] | < 100 nM | 500 to 5000 nM |
| O=C(NCc1ccc(C(F)(F)F)cn1)c1cn(CCCCc2cc3cc(-c4ccccc4F)[nH]c3nn2)nn1 [Example 193, 1-(4-[6-(2-fluorophenyl)-7H-pyrrolo[2,3-c]pyridazin-3-yl]butyl}-N-{[5-(trifluoromethyl)pyridin-2-yl]methyl}-1H-1,2,3-triazole-4-carboxamide] | < 100 nM | 100 to 500 nM |
| CC(C)(O)c1ccc(CNC(=O)c2cn(CCCCc3cc4c(-c5ccoc5)c(C5CC5)[nH]c4nn3)nn2)cn1 [Example 171, 1-{4-[6-cyclopropyl-5-(furan-3-yl)-7H-pyrrolo[2,3-c]pyridazin-3-yl]butyl}-N-{[6-(2-hydroxypropan-2-yl)pyridin-3-yl]methyl}-1H-1,2,3-triazole-4-carboxamide] | < 100 nM | < 100 nM |
| O=C(NCc1cccc(C(F)(F)F)n1)c1cn(CCCCc2cc3c(C4CC4)c(C4CC4)[nH]c3nn2)nn1 [Example 211, 1-(4-{5,6-dicyclopropyl-7H-pyrrolo[2,3-c]pyridazin-3-yl}butyl)-N-{[6-(trifluoromethyl)pyridin-2-yl]methyl}-1H-1,2,3-triazole-4-carboxamide] | < 100 nM | 100 to 500 nM |
| O=C(NCCO)c1nnc(CCCCc2cc3cc(Cc4ccccc4)[nH]c3nn2)s1 [Example 68, 5-(4-{6-benzyl-7H-pyrrolo[2,3-c]pyridazin-3-yl}butyl)-N-(2-hydroxyethyl)-1,3,4-thiadiazole-2-carboxamide] | 500 to 5000 nM | 500 to 5000 nM |
| CC(C)(O)c1ccc(CNC(=O)c2cn(CCCCc3cc4cc(C5CC5)[nH]c4nn3)nn2)cn1 [Example 86, 1-(4-{6-cyclopropyl-7H-pyrrolo[2,3-c]pyridazin-3-yl}butyl)-N-{[6-(2-hydroxypropan-2-yl)pyridin-3-yl]methyl}-1H-1,2,3-triazole-4-carboxamide] | < 100 nM | 100 to 500 nM |
| O=C(NCc1cc(OC(F)(F)F)ccc1F)c1cn(CCCCc2cc3c(Cc4ccccn4)c(C4CC4)[nH]c3nn2)nn1 [Example 127, 1-{4-[6-cyclopropyl-5-(pyridin-2-ylmethyl)-7H-pyrrolo[2,3-c]pyridazin-3-yl]butyl}-N-{[2-fluoro-5-(trifluoromethoxy)phenyl]methyl}-1H-1,2,3-triazole-4-carboxamide] | < 100 nM | 100 to 500 nM |
| Cc1ccc(CNC(=O)c2cn(CCCCc3cc4cc(-c5cccc(F)c5)[nH]c4nn3)nn2)cn1 [Example 202, 1-{4-[6-(3-fluorophenyl)-7H-pyrrolo[2,3-c]pyridazin-3-yl]butyl}-N-[(6-methylpyridin-3-yl)methyl]-1H-1,2,3-triazole-4-carboxamide] | < 100 nM | 100 to 500 nM |
| Cc1ccc(CNC(=O)c2cn(CCCCc3cc4c(-c5ccoc5)c(C5CC5)[nH]c4nn3)nn2)cn1 [Example 172, 1-{4-[6-cyclopropyl-5-(furan-3-yl)-7H-pyrrolo[2,3-c]pyridazin-3-yl]butyl}-N-[(6-methylpyridin-3-yl)methyl]-1H-1,2,3-triazole-4-carboxamide] | < 100 nM | < 100 nM |
| O=C(NCc1ccccn1)c1cn(CC(F)CCc2cc3cc(-c4ccccc4F)[nH]c3nn2)nn1 (stereo not shown) [Example 242, 1-{2-fluoro-4-[6-(2-fluorophenyl)-7H-pyrrolo[2,3-c]pyridazin-3-yl]butyl}-N-(pyridin-2-ylmethyl)-1H-1,2,3-triazole-4-carboxamide] | < 100 nM | 100 to 500 nM |
| O=C(NCc1ccc(C(F)(F)F)cn1)c1cn(CCCCc2cc3c(-c4ccc(F)cc4F)c(C4CC4)[nH]c3nn2)nn1 [Example 218, 1-{4-[6-cyclopropyl-5-(2,4-difluorophenyl)-7H-pyrrolo[2,3-c]pyridazin-3-yl]butyl}-N-{[5-(trifluoromethyl)pyridin-2-yl]methyl}-1H-1,2,3-triazole-4-carboxamide] | < 100 nM | 100 to 500 nM |
| O=C(Nc1nnc(CCCCc2cc3cc[nH]c3nn2)s1)[C@@H](O)c1ccccc1 [Example 66, (2S)-2-hydroxy-2-phenyl-N-[5-(4-{7H-pyrrolo[2,3-c]pyridazin-3-yl}butyl)-1,3,4-thiadiazol-2-yl]acetamide] | 100 to 500 nM | 500 to 5000 nM |
| O=C(NCc1cc(OC(F)(F)F)ccc1F)c1cn(CCCCc2cc3cc(C4CN(C(=O)C5CC(F)(F)C5)C4)[nH]c3nn2)nn1 [Example 226, 1-(4-{6-[1-(3,3-difluorocyclobutanecarbonyl)azetidin-3-yl]-7H-pyrrolo[2,3-c]pyridazin-3-yl}butyl)-N-{[2-fluoro-5-(trifluoromethoxy)phenyl]methyl}-1H-1,2,3-triazole-4-carboxamide] | < 100 nM | 100 to 500 nM |
| O=C(NCc1cc(OC(F)(F)F)ccc1F)c1cn(CCCCc2cc3cc(C4CN(C(=O)C5(C(F)(F)F)CC5)C4)[nH]c3nn2)nn1 [Example 225, N-{[2-fluoro-5-(trifluoromethoxy)phenyl]methyl}-1-[4-(6-{1-[1-(trifluoromethyl)cyclopropane-carbonyl]azetidin-3-yl}-7H-pyrrolo[2,3-c]pyridazin-3-yl)butyl]-1H-1,2,3-triazole-4-carboxamide] | < 100 nM | < 100 nM |
| Cc1ccc(CNC(=O)c2cn(CCCCc3cc4cc(-c5ccccc5C(F)(F)F)[nH]c4nn3)nn2)cn1 [Example 215, N-[(6-methylpyridin-3-yl)methyl]-1-(4-{6-[2-(trifluoromethyl)phenyl]-7H-pyrrolo[2,3-c]pyridazin-3-yl}butyl)-1H-1,2,3-triazole-4-carboxamide] | < 100 nM | 100 to 500 nM |
